{
  "source": "patent US20260124184A1",
  "about": "“ONCE DAILY ALDOSTERONE SYNTHASE INHIBITOR (R)-(+)-5-(P-CYANOPHENYL)-5,6,7,8-TETRAHYDROIMIDAZO[L,5-A]PYRIDINE” (priority 2022, published 2026)",
  "origin": "cited, not measured here",
  "target": "aldosterone synthase (Homo sapiens, UniProt P19099)",
  "sequence (P19099 25-503, species assumed)": "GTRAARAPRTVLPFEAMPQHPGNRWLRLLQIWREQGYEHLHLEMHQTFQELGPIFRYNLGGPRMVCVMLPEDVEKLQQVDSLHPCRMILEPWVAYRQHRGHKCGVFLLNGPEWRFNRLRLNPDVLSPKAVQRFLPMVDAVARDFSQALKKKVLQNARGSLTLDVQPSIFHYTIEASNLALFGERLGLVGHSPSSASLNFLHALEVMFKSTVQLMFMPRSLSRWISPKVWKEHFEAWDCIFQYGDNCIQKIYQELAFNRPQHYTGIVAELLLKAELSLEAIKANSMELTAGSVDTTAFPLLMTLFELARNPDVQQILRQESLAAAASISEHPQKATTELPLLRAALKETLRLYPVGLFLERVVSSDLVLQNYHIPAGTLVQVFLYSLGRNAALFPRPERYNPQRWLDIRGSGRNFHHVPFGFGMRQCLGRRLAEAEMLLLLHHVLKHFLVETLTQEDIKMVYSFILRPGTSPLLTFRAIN",
  "settings": "ee of (R) form ≥99%; per WO 2018/078049; cited from earlier work",
  "data": [
    {"smiles": "N#Cc1ccc([C@H]2CCCc3cncn32)cc1", "note": "[(R)-(+)-5-(p-cyanophenyl)-5,6,7,8-tetrahydroimidazo[1,5-a]pyridine]", "values": [
      {"measurement": "aldosterone synthase inhibition, potency", "result": "low nanomolar"},
      {"measurement": "aldosterone synthase inhibition, selectivity", "result": "selective"}
    ]}
  ]
}
